Laboratory results taken from patent US20240270744A1 (Hoffmann-La Roche Inc., priority 2021, published 2024).

Columns and labels:
[1] = target: human GABAA α1β2γ1 receptor (Homo sapiens (Human), UniProt P14867+Q8N1C3); assay: Radioligand binding assay, competition for [3H]RO7239181, γ1-containing GABAA subtypes; settings: Table 1; [3H]RO7239181 displacement, membranes from HEK293F cells, mean of two determinations
h-GABA-A α2β2γ1 = h-GABA-A α2β2γ1 (Homo sapiens (Human), UniProt P47869+Q8N1C3); assay: Two-electrode voltage clamp electrophysiology in Xenopus oocytes expressing GABAA receptors; format: cell-based; settings: Table 2; for Efficacy (GABA) %: % modulation of GABA EC20 = 100*(Fold increase-1), compound at 30-fold Ki; for Fold increase h-GABA-A α2β2γ1 oocyte @ 30-fold Ki: GABA EC20, test compound at approx. 30-fold its Ki α2β2γ1, Xenopus oocytes, -80 mV
Procedure: Xenopus laevis oocytes at maturation stages V-VI were used for the expression of cloned mRNA encoding GABAA receptor subunits. Oocytes ready for RNA micro-injection were bought from Ecocyte, Castrop-Rauxel, Germany and stored in modified Barth's medium (composition in mM: NaCl 88, KCl 1, NaHCO3 2.4, HEPES 10, MgSO4 0.82, CaNO3 0.33, CaCl2 0.33, pH=7.5) at 20° C. until the experiment.
Oocytes were plated in 96-well plates for microinjection using the Roboinject automated instrument (MultiChannelSystems, Reutlingen, Germany). Approximately 50 nL of an aqueous solution containing the RNA transcripts for the subunits of the desired GABAA receptor subtype was injected into each oocyte. […] Oocytes were kept in modified Barth's medium (composition in mM: NaCl 88, KCl 1, NaHCO3 […], HEPES 10, MgSO4 0.82, CaNO3 0.33, CaCl2 0.33, pH=7.5) at 20° C. until the experiment.
Electrophysiological experiments were performed using the Roboocyte instrument (MultiChannelSystems, Reutlingen, Germany) on days 3 to 5 after the micro-injection of mRNA. During the experiment the oocytes were constantly superfused by a solution containing (in mM) NaCl 90, KCl 1, HEPES 5, MgCl2 1, CaCl2 1 (pH 7.4). Oocytes were impaled by two glass microelectrodes (resistance: […]) which were filled with a solution containing KCl 1M+K-acetate 1.5 M and voltage-clamped to −80 mV. The recordings were performed at room temperature using the Roboocyte two-electrode voltage clamp system (Multichannelsystem). After an initial equilibration period of 1.5 min GABA was added for 1.5 min at a concentration evoking approximately 20% of a maximal current response (EC20). After another rest interval of 2.5 min GABA was again added evoking a response of similar amplitude and shape. […] Current traces were recorded at a digitization rate of 10 Hz during and shortly before and after the GABA application.
Each compound and concentration was tested on at least 3 oocytes. Different oocytes were used for different compound concentrations.
For the analysis, the digitized current traces of the first and second GABA response were superimposed and, if necessary, rescaled to equal maximal amplitudes. The ratio between the two responses during the time interval of test compound application was calculated point by point. The extremum of the resulting “ratio trace” was taken as the efficacy (“Fold increase”) of the compound expressed as “% modulation of GABA EC20” (100*(Fold increase−1)).

| SMILES | Ki [1] | Efficacy (GABA) % (h-GABA-A α2β2γ1) | Fold increase h-GABA-A α2β2γ1 oocyte @ 30-fold Ki (h-GABA-A α2β2γ1) |
| --- | --- | --- | --- |
| C[C@H](O)CNC(=O)c1nc2n(n1)-c1cnc(C(F)(F)F)c(Cl)c1C(c1c(F)cccc1F)=N[C@H]2C [Example 14, (7S)-11-chloro-9-(2,6-difluorophenyl)-N-[(2S)-2-hydroxypropyl]-7-methyl-12-(trifluoromethyl)-2,3,5,8,13-pentazatricyclo[8.4.0.02,6]tetradeca-1(10),3,5,8,11,13-hexaene-4-carboxamide] | 91.8 nM | 158% | 2.58 |
| C[C@@H]1N=C(c2c(F)cccc2F)c2c(cnc(C(F)(F)F)c2Cl)-n2nc(C(=O)NCCO)nc21 [Example 15, (7S)-11-chloro-9-(2,6-difluorophenyl)-N-(2-hydroxyethyl)-7-methyl-12-(trifluoromethyl)-2,3,5,8,13-pentazatricyclo[8.4.0.02,6]tetradeca-1(10),3,5,8,11,13-hexaene-4-carboxamide] | 114 nM | 146% | 2.46 |
| C[C@@H]1N=C(c2c(F)cccc2F)c2c(cnc(C(F)(F)F)c2Cl)-n2nc(C(=O)NC[C@@H](C)O)nc21 [Example 16, (7S)-11-chloro-9-(2,6-difluorophenyl)-N-[(2R)-2-hydroxypropyl]-7-methyl-12-(trifluoromethyl)-2,3,5,8,13-pentazatricyclo[8.4.0.02,6]tetradeca-1(10),3,5,8,11,13-hexaene-4-carboxamide] | 157 nM | 166% | 2.66 |
| Cc1nnc2n1-c1cnc(C(F)(F)F)c(Cl)c1C(c1c(F)cccc1Cl)=N[C@H]2C [Example 17, (7S)-11-chloro-9-(2-chloro-6-fluoro-phenyl)-3,7-dimethyl-12-(trifluoromethyl)-2,4,5,8,13-pentazatricyclo[8.4.0.02,6]tetradeca-1(10),3,5,8,11,13-hexaene] | 34.4 nM | 91% | 1.91 |
| C[C@@H]1N=C(c2c(F)cccc2F)c2c(cnc(C(F)(F)F)c2Cl)-n2cc(C(=O)NCCO)nc21 [Example 19, (7S)-11-chloro-9-(2,6-difluorophenyl)-N-(2-hydroxyethyl)-7-methyl-12-(trifluoromethyl)-2,5,8,13-tetrazatricyclo[8.4.0.02,6]tetradeca-1(10),3,5,8,11,13-hexaene-4-carboxamide] | 48.9 nM | 170% | 2.70 |
